Laboratory results: BindingDB's records for doi:10.1016/j.ejmech.2023.115180 (Damanhour University, 2023)

Assay: Inhibition of LOX (unknown origin) using arachidonic/linoleic acid as substrate preincubated for 5 mins followed by substrate addition measured after 10 mins by absorbance based assay

In the case of `Nc1c(C(=O)N/N=C/c2cccs2)cnn1-c1ccc(S(N)(=O)=O)cc1`, the IC50 is reported as 2500 nM.
`Nc1c(C(=O)N/N=C/c2ccccc2)cnn1-c1ccc(S(N)(=O)=O)cc1` showed an IC50 of 2400 nM.
